Drawing on patent publication US6835720B2, “Compounds having antiviral activity” (Nissin Food Products Co., Ltd., priority 1996, dated 2004), this text covers IC50 and CC50 for eight compounds.

Data set [1] relates to AIDS virus (HIV-1, IIIb). The class given is cell-based. Particulars: HIV-1 IIIb in H9 cells, p24 in culture supernatant by ELISA on the 6th day. The procedure: (§1) Samples of various concentrations (25 μl) are distributed into a 24-well microplate, immediately added with human T cells (H9 cell line, 1.2×10^5/ml) (1 ml), covered, and incubated at 37° C. for 1 h. Then, AIDS virus (HIV-1, IIIb, 100 TCID 50) (25 μl) is added to each well and thoroughly mixed, covered again, and incubated under the CO2 atmosphere at 37° C. for 3 days. On the fourth day, aliquots (200 μl) of the culture medium from each well are transferred into a fresh microplate. The growth medium (500 μl) is added to each well, and further incubated for 2 days.
(§2) On the 6th day, aliquots (90 μl) of the culture supernatant are withdrawn, and assayed the amount of p24, a constituent of HIV-1, by ELISA method using the anti-p24 antibody to assess the growth of said virus. Also, using the remaining cell culture suspension (100 μl), viable cells are counted by the MTT method. Experimental values are expressed as the ratios (%) to the negative control value (measured using the solvent to dissolve test compounds as the sample) to represent the anti-HIV activity and cytotoxicity. Then, for the unified representation of the anti-HIV activity and cytotoxicity, the concentrations of test compounds at their 50% values are obtained from the activity-concentration curves and the cytotoxicity-concentration, and represented as IC50 and CC50, respectively.

Data set [2] relates to human T cells (H9 cell line). The data set can be described thus: Cytotoxicity, viable cells counted by the MTT method. The data set is classed as cell-based. How it is done: as §1, §2

On to `CCCCCCCCCCOCC(COC1(C(=O)O)CC(OS(=O)(=O)O)C(NC(C)=O)C(C(OS(=O)(=O)O)C(COS(=O)(=O)O)OS(=O)(=O)O)O1)OCCCCCCCCCC` [Example 5, 3-O-[Sodium{5-acetamido-3,5-dideoxy-4,7,8,9-tetra-O-(sodiumoxysulfonyl)-D-glycero-α-D-galacto-2-nonulopyranosyl}onate]-1,2-di-O-decyl-Sn-glycerol], for which, in data set [1], the half-inhibitory concentration (IC50) (usually the concentration that inhibits the measured activity by half) came out at 46 µM. Besides, in data set [2], the CC50 (usually the concentration giving 50% cytotoxicity) is over 200 µM.

`CCCCCCCCCCCCCCCCCCCCOCC(COC1(C(=O)O)CC(OS(=O)(=O)O)C(NC(C)=O)C(C(OS(=O)(=O)O)C(COS(=O)(=O)O)OS(=O)(=O)O)O1)OCCCCCCCCCCCCCCCCCCCC` [Example 17, 3-O-[Sodium{5-acetamido-3,5-dideoxy-4,7,8,9-tetra-O-(sodiumoxysulfonyl)-D-glycero-α-D-galacto-2-nonulopyranosyl)onate]-1,2-di-O-eicosyl-Sn-glycerol] gave a concentration for half-maximal inhibition (IC50) in data set [1] of 2.5 µM. Further, the cytotoxic concentration (CC50) in data set [2] is over 20 µM.

In data set [1], `CCCCCCCCCCCCCCCCCCOCC(COC1(C(=O)O)CC(OS(=O)(=O)O)C(NC(C)=O)C(C(OS(=O)(=O)O)C(COS(=O)(=O)O)OS(=O)(=O)O)O1)OCCCCCCCCCCCCCCCCCC` [Example 9, 3-O-[Sodium{5-acetamido-3,5-dideoxy-4,7,8,9-tetra-O-(sodiumoxysulfonyl)-D-glycerol-α-D-galacto-2-nonulopyranosyl)onate]-1,2-di-O-octadecyl-Sn-glycerol] had an IC50 of 3.8 µM. The compound further showed a CC50 in data set [2] of over 200 µM.

As for `CC(=O)N[C@H]1[C@H]([C@H](OS(=O)(=O)O)[C@@H](COS(=O)(=O)O)OS(=O)(=O)O)O[C@@](O[C@H]2CC[C@@]3(C)C(=CC[C@H]4[C@@H]5CC[C@H]([C@H](C)CCCC(C)C)[C@@]5(C)CC[C@@H]43)C2)(C(=O)O)C[C@@H]1OS(=O)(=O)O` [Example 24, 3β-[Sodium{5-acetamido-3,5-dideoxy-4,7,8,9-tetra-O-(sodiumoxysulfonyl)-D-glycero-α-D-galacto-2-nonulopyranosyl}onate]-5-cholestene], the 50% inhibitory concentration (IC50) in data set [1] stood at 34 µM. Moreover, the CC50 in data set [2] was over 200 µM.

For the compound `CCCCCCCCCCCCCCCCCCCCCCOc1cc(OCCCCCCCCCCCCCCCCCCCCCC)cc(O[C@@]2(C(=O)O)C[C@H](OS(=O)(=O)O)[C@@H](NC(C)=O)[C@H]([C@H](OS(=O)(=O)O)[C@@H](COS(=O)(=O)O)OS(=O)(=O)O)O2)c1` [Example 35, Sodium[3,5-Didocosyloxyphenyl-5-acetamido-3,5-dideoxy-4,7,8,9-tetra-O-(sodiumoxysulfonyl)-D-glycero-β-D-galacto-2-nonulopyranosid)onate], the 50% inhibitory concentration (IC50) in data set [1] came to 90 µM. Moreover, the CC50 in data set [2] was over 20 µM.

For the compound `CCCCCCCCCCCCCCCCCCCCCCOCC(CC)(COCCCCCCCCCCCCCCCCCCCCCC)COC1(C(=O)O)CC(OS(=O)(=O)O)C(NC(C)=O)C(C(OS(=O)(=O)O)C(COS(=O)(=O)O)OS(=O)(=O)O)O1` [Example 50, Sodium[2,2-bis(docosyloxymethyl)butyl 5-acetamido-3,5-dideoxy-4,7,8,9-tetra-O-(sodiumoxysulfonyl)-D-glycero-α-D-galacto-2-nonulopyranosid)onate], the IC50 in data set [1] amounted to 1.1 µM. In data set [2], this compound returned a CC50 of over 200 µM.

Compound “3-S-[Sodium{5-acetamido-3,5-dideoxy-4,7,8,9-tetra-O-(sodium oxysulfonyl)-D-glycero-α-D-galacto-2-nonulopyranosyl}onate]-1,2-di-O-tetradecyl-Sn-thioglycerol [Example 14]” displayed a concentration for half-maximal inhibition (IC50) in data set [1] of 15 µM. Besides, the CC50 in data set [2] is over 200 µM.

Compound `CCCCCCCCCCCCCCCCCCCCCC(=O)OCC(COC1(C(=O)O)CC(OS(=O)(=O)O)C(NC(C)=O)C(C(OS(=O)(=O)O)C(COS(=O)(=O)O)OS(=O)(=O)O)O1)OC(=O)CCCCCCCCCCCCCCCCCCCCC` [Example 38, 3-O-[Sodium{5-acetamido-3,5-dideoxy-4,7,8,9-tretra-O-(sodiumoxysulfonyl)-D-glycero-α-D-galacto-2-nonulopyranosyl}onate]-1,2-di-O-docosanoyl-Sn-glycerol] returned an IC50 in data set [1] of 2.5 µM. The compound further gave a CC50 in data set [2] of over 200 µM.
